This passage reports IC50 results from US20210163443A1, “Febrifugine Derivatives” (BRISTOL-MYERS SQUIBB COMPANY, priority 2019, published 2021).

Where a name gives a salt, the structure may show the parent alone. Where only a bound is given, the exact number is not on record here.

The target of this experiment is T1, human ProRS (prolyl tRNA synthetase moiety of glutamyl prolyl tRNA synthetase, EPRS) (Homo sapiens, UniProt P07814).
T1 construct: The prolyl tRNA synthetase moiety (ProRS) in the cDNA of glutamyl prolyl tRNA synthetase was subcloned; 6xHis (N, cleaved yes); made in house; host or cells: E. coli BL21 (DE3)
T1 sequence (P07814 1007-1512 limits assumed): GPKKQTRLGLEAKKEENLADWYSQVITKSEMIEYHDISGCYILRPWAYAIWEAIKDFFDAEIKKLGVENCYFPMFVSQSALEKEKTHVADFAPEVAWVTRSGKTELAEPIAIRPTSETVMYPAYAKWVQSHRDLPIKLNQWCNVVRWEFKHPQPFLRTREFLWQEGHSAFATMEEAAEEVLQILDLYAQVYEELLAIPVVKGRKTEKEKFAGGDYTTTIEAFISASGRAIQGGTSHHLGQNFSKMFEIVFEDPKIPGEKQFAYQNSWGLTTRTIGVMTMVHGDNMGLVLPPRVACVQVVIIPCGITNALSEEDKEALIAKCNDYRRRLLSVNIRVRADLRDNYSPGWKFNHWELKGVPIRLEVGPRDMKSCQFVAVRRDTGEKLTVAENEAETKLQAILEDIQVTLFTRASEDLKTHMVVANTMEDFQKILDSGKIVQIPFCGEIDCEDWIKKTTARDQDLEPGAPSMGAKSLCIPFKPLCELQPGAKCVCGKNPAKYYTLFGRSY
The experiment can be described thus: Assay for inhibitors of prolyl tRNA synthetase activity (ProRS assay, labeled proline incorporation). The conditions noted are these: human ProRS 20 nM, 10 min at 37° C.; read-out: EPRS IC50. The class given is biochemical. The source says: In order to establish the activities of the compounds highlighted above, we determined extent of inhibition of prolyl tRNA synthetase activity in dose response curves to obtain IC50 values.
The prolyl tRNA synthetase moiety (ProRS) in the cDNA of glutamyl prolyl tRNA synthetase was subcloned, tagged with a single biotin, purified and used in the assay.
Briefly, human ProRS with a 6×N-terminal His tag in pET28N with TVMV BioP was transformed in E. coli BL21 (DE3) cells, selected, overexpressed and purified using a Ni Seph 6 FF XK 16/20 column in the first stage. Ni-NTA eluates were pooled and treated with TVMV protease, and biotinylated using d-Biotin, MgCl2, ATP and the BirA enzyme. This was rerun through a Ni column as before. The eluates were further enriched and purified using membrane ultrafiltration and a SuperDex 200 XK 16/60 column, and peak fractions were confirmed by SDS-PAGE prior to protein amount determination, aliquoting and storage at −80° C. • ProRS assay was performed in 96 well plates in a final reaction volume of 20 μl, using staggered additions of Tris-Cl (pH 7.5, 60 mM), dithiothreitol (2 mM), ATP (5 mM, pH 7.0), MgCl2 6 mM), ProRS (20 nM, with pre-determined active fraction range) and bovine tRNA (20 μg). Controls and compounds, at various concentrations (10 μM to 0.5 nM), were incubated on ice with enzyme mix for 15 min followed by addition of proline (non-labeled and labeled, 3.96 and 1.04 μM (1 μCi) respectively) to initiate the reaction. Reaction was carried out for 10 min at 37° C. and terminated by addition of TCA (10%, 100 μl). Reaction mix was collected on a Whatman GF/B filter using a vacuum filtration manifold. This filter was washed 3 times with 5% TCA followed by 2 washes with ethanol, air dried, and read using a liquid scintillation counter (TopCount NXT) using MicroScint O. IC50 values were calculated and analyzed using ToolSet (4-parameter plot) and depicted herein.
Usually IC50 stands for the concentration needed to halve the response being measured. Consider `Cc1cc(C(C)C)cc2c(=O)n(C[C@@H](O)C[C@H]3NCCC[C@@H]3O)cnc12` [Example 45, 3-{(S)-2-Hydroxy-3-[(2R,3S)-3-hydroxypiperidin-2-yl]propyl}-6-isopropyl-8-methylquinazolin-4(3H)-one hydrochloride], for which the concentration for half-maximal inhibition (IC50) is 21 nM. `Cc1cc(C2CC2)cc2c(=O)n(C[C@@H](O)C[C@H]3NCCC[C@@H]3O)cnc12` [Example 46, 6-Cyclopropyl-3-{(S)-2-hydroxy-3-[(2R,3S)-3-hydroxypiperidin-2-yl]propyl}-8-methylquinazolin-4(3H)-one hydrochloride]: the IC50 came to 34 nM. In the case of `Cc1cc(C#N)cc2c(=O)n(C[C@@H](O)C[C@H]3NCCC[C@@H]3O)cnc12` [Example 47, 3-{(S)-2-Hydroxy-3-[(2R,3S)-3-hydroxypiperidin-2-yl]propyl}-8-methyl-4-oxo-3,4-dihydroquinazoline-6-carbonitrile hydrochloride], the IC50 came to 235 nM. With `Cl.O=c1c2c(-c3cccc(F)c3)cccc2ncn1C[C@@H](O)C[C@H]1NCCC[C@@H]1O` [Example 49, 5-(3-Fluorophenyl-3-{(S)-2-hydroxy-3-[(2R,3S)-3-hydroxypiperidin-2-yl]propyl}quinazolin-4(3H)-one hydrochloride], the IC50 turned out to be 41 nM. Take `O=c1c2cc(-c3cccc(F)c3)ccc2ncn1C[C@@H](O)C[C@H]1NCCC[C@@H]1O` [Example 50, 6-(3-Fluorophenyl)-3-{(S)-2-hydroxy-3-[(2R,3S)-3-hydroxypiperidin-2-yl]propyl}quinazolin-4(3H)-one hydrochloride]: the IC50 was found to be 14 nM. As for `O=c1c2cc(-c3cccc(Cl)c3)ccc2ncn1C[C@@H](O)C[C@H]1NCCC[C@@H]1O` [Example 51, 6-(3-Chlorophenyl)-3-{(S)-2-hydroxy-3-[(2R,3S)-3-hydroxypiperidin-2-yl]propyl}quinazolin-4(3H)-one hydrochloride], the IC50 came to 23 nM. Regarding `O=c1c2cc(-c3cccc(C(F)(F)F)c3)ccc2ncn1C[C@@H](O)C[C@H]1NCCC[C@@H]1O` [Example 52, 3-{(S)-2-hydroxy-3-[(2R,3S)-3-hydroxypiperidin-2-yl]propyl}-6-(3-(trifluoromethyl)phenyl)quinazolin-4(3H)-one hydrochloride], the IC50 stood at 40 nM.

`Cc1cc(-c2cccc(F)c2)cc2c(=O)n(C[C@@H](O)C[C@H]3NCCC[C@@H]3O)cnc12` [Example 53, 6-(3-Fluorophenyl)-3-{(S)-2-hydroxy-3-[(2R,3S)-3-hydroxypiperidin-2-yl]propyl}-8-methylquinazolin-4(3H)-one hydrochloride]: the IC50 is 9 nM. Under `Cc1cc(-c2cccc(C(F)(F)F)c2)cc2c(=O)n(C[C@@H](O)C[C@H]3NCCC[C@@H]3O)cnc12` [Example 54, 3-{(S)-2-Hydroxy-3-[(2R,3S)-3-hydroxypiperidin-2-yl]propyl}-8-methyl-6-(3-(trifluoromethyl)phenyl)quinazolin-4(3H)-one hydrochloride] stands 31 nM; under `Cc1cc(-c2cccnc2)cc2c(=O)n(C[C@@H](O)C[C@H]3NCCC[C@@H]3O)cnc12` [Example 55, 3-{(S)-2-Hydroxy-3-[(2R,3S)-3-hydroxypiperidin-2-yl]propyl}-8-methyl-6-(pyridin-3-yl)quinazolin-4(3H)-one dihydrochloride], 11 nM. As for `Cc1cc(-c2ccc(F)c(F)c2)cc2c(=O)n(C[C@@H](O)C[C@H]3NCCC[C@@H]3O)cnc12` [Example 56, 6-(3,4-Difluorophenyl)-3-{(S)-2-hydroxy-3-[(2R,3S)-3-hydroxypiperidin-2-yl]propyl}-8-methylquinazolin-4(3H)-one hydrochloride], the half-inhibitory concentration (IC50) was determined as 4 nM. As to `Cc1cc(C2CCOCC2)cc2c(=O)n(C[C@@H](O)C[C@H]3NCCC[C@@H]3O)cnc12` [Example 57, 3-{(S)-2-Hydroxy-3-[(2R,3S)-3-hydroxypiperidin-2-yl]propyl}-8-methyl-6-(tetrahydro-2H-pyran-4-yl)quinazolin-(3H)-one hydrochloride], the half-maximal inhibitory concentration (IC50) was 52 nM. As for `Cc1cc(N2CCCC2)cc2c(=O)n(C[C@@H](O)C[C@H]3NCCC[C@@H]3O)cnc12` [Example 58, 3-{(S)-2-Hydroxy-3-[(2R,3S)-3-hydroxypiperidin-2-yl]propyl}-8-methyl-6-(pyrrolidin-1-yl)quinazolin-4(3H)-one dihydrochloride], the figure is 321 nM; as for `O=c1c2c(C(F)(F)F)cccc2ncn1C[C@@H](O)C[C@H]1NCCC[C@@H]1O` [Example 59, 3-{(S)-2-Hydroxy-3-[(2R,3S)-3-hydroxypiperidin-2-yl]propyl}-5-(trifluoromethyl)quinazolin-4(3H)-one hydrochloride], 316 nM. For the compound `O=c1c2c(-c3cccc(C(F)(F)F)c3)cccc2ncn1C[C@@H](O)C[C@H]1NCCC[C@@H]1O` [Example 60, 3-{(S)-2-Hydroxy-3-[(2R,3S)-3-hydroxypiperidin-2-yl]propyl}-5-[3-(trifluoromethyl)phenyl]quinazolin-4(3H)-one hydrochloride], the IC50 is 38 nM. Under `O=c1c2c(-c3ccc(F)c(F)c3)cccc2ncn1C[C@@H](O)C[C@H]1NCCC[C@@H]1O` [Example 61, 5-(3,4-Difluorophenyl)-3-{(S)-2-hydroxy-3-[(2R,3S)-3-hydroxypiperidin-2-yl]propyl}quinazolin-4(3H)-one hydrochloride] stands 69 nM; under `O=c1c2c(-c3cccnc3)cccc2ncn1C[C@@H](O)C[C@H]1NCCC[C@@H]1O` [Example 62, 3-{(S)-2-Hydroxy-3-[(2R,3S)-3-hydroxypiperidin-2-yl]propyl}-5-(pyridin-3-yl)quinazolin-4(3H)-one dihydrochloride], 53 nM. Consider `Cc1cc(Cl)cc2c(=O)n(C[C@@H](O)C[C@H]3NCCC[C@@H]3OC(=O)C(C)(C)C)cnc12` [Example 63, (2R,3S)-2-{(S)-3-[6-chloro-8-methyl-4-oxoquinazolin-3(4H)-yl]-2-hydroxypropyl}piperidin-3-ylpivalate hydrochloride], for which the half-inhibitory concentration (IC50) is greater than 10000 nM. Turning to `Cc1cc(-c2ccn(C)n2)cc2c(=O)n(C[C@@H](O)C[C@H]3NCCC[C@@H]3O)cnc12` [Example 64, 3-{(S)-2-hydroxy-3-[(2R,3S)-3-hydroxypiperidin-2-yl]propyl}-8-methyl-6-(1-methyl-1H-pyrazol-3-yl)quinazolin-4(3H)-one hydrochloride], the IC50 worked out at 30 nM.

Turning to `COC(=O)N1CCC[C@H](O)[C@H]1C[C@H](O)Cn1cnc2c(C)cc(Cl)cc2c1=O` [Example 65, Methyl (2R,3S)-2-((S)-3-(6-chloro-8-methyl-4-oxoquinazolin-3(4H)-yl)-2-hydroxypropyl)-3-hydroxypiperidine-1-carboxylate], the half-inhibitory concentration (IC50) was greater than 10000 nM. Take `Cc1cc(-c2cscn2)cc2c(=O)n(C[C@@H](O)C[C@H]3NCCC[C@@H]3O)cnc12` [Example 66, 3-((S)-2-hydroxy-3-((2R,3S)-3-hydroxypiperidin-2-yl)propyl)-8-methyl-6-(thiazol-4-yl)quinazolin-4(3H)-one hydrochloride]: the IC50 amounted to 13 nM. For the compound `Cc1cc(C2CCC2)cc2c(=O)n(C[C@@H](O)C[C@H]3NCCC[C@@H]3O)cnc12` [Example 67, 6-cyclobutyl-3-{(S)-2-hydroxy-3-[(2R,3S)-3-hydroxypiperidin-2-yl]propyl}-8-methylquinazolin-4(3H)-one], the half-maximal inhibitory concentration (IC50) stood at 18 nM. As for `O=c1c2c(C3CC3)cccc2ncn1C[C@@H](O)C[C@H]1NCCC[C@@H]1O` [Example 68, 5-Cyclopropyl-3-{(S)-2-hydroxy-3-[(2R,3S)-3-hydroxypiperidin-2-yl]propyl}quinazolin-4(3H)-one hydrochloride], the figure is 9 nM; as for `Cc1cc(C2CCNCC2)cc2c(=O)n(C[C@@H](O)C[C@H]3NCCC[C@@H]3O)cnc12` [Example 69, 3-{(S)-2-hydroxy-3-[(2R,3S)-3-hydroxypiperidin-2-yl]propyl}-8-methyl-6-(piperidin-4-yl)quinazolin-4(3H)-one dihydrochloride], 106 nM.
